Assay results taken from ChEMBL document CHEMBL3301451, “MMV Malaria Box gametocyte functional viability assay screening”.

Assays:
Assay type in all cases: functional
Design in all cases: concentration or dose not given beside the values
Plasmodium falciparum [1] = assay: MMV: P. falciparum NF54 functionally mature Stage V gametocytes were incubated for 24 hr in the presence of the test compounds. Gamete formation was then triggered by addition of 2uM xantheurenic acid and temperature decrease to ~20C. Female gamete formation was recorded 24 hr later by automated microscopy detection of surface labelling of female gametes with a Cy3-conjugated antibody reactive to Pfs25. All compounds were tested in 4 independent experiments and data presented here is the mean.; details: NF54, 24 h
Plasmodium berghei = assay: MMV: P. berghei-infected blood was withdrawn from mice by cardiac pucture before being immediately added to ookinete culture medium containing test compounds. 26 hr later, GFP-positive ookinetes were identified and counted by automated microscopy. All compounds were tested in 4 independent experiments and data presented here is the mean.
Plasmodium falciparum [2] = assay: MMV: P. falciparum NF54 functionally mature Stage V gametocytes were incubated for 24 hr in the presence of the test compounds. Gamete formation was then triggered by addition of 2uM xantheurenic acid and temperature decrease to ~20C. Male gamete exflagellation was recorded and analysed by automated microscopy after 20 min. All compounds were tested in 4 independent experiments and data presented here is the mean.

SMILES | inhibition (Plasmodium falciparum [1]) | inhibition (Plasmodium berghei) | inhibition (Plasmodium falciparum [2])
CCOC(=O)C1CCN(C(=O)CN2C(=O)c3ccccc3C2c2c[nH]c3ccccc23)CC1 (centres undefined) | -26% | -16.49% | 32.6%
O=c1nc(C=Cc2ccc(Cl)cc2)oc2ccccc12 | -1.1% | 7% | 41%
COc1ccc(NC(=O)C2c3ccccc3C(=O)N(CC(C)C)C2c2cccs2)cc1 (centres undefined) | 13.9% | -10.74% | 22.3%
COc1ccc(C(=O)Nc2nonc2-c2ccc(OC)c(OC)c2)cc1Cl | -18.2% | 1.319% | 36.3%
CCCOCc1cc(CN2CCN(c3cccc(Cl)c3)CC2)c(O)c2ncccc12 | 14.3% | -5.698% | 19%
OC(CNC1CCCCC1)Cn1c2ccccc2c2ccccc21 (centres undefined) | 4.91% | 28.1% | 12.1%
COc1ccc(C(=O)Nc2ccc3nc(N4CCCCC4)cc(C)c3c2)cc1OC | -48% | -18.9% | 9.9%
CCOc1ccc2c(c1)CN(Cc1ccc(Cl)cc1)CO2 | -18.1% | 5.14% | 18.9%
O=C(Nc1ccc(C23CC4CC(CC(c5ccccc5)(C4)C2)C3)cc1)c1cccs1 | -23.5% | -2.527% | 18.1%
Cc1ccccc1OCCSc1nc2ccc(NC(=O)c3ccccc3)cc2s1 | -13.8% | -15.11% | 5.46%
COc1ccc(-c2nonc2NC(=O)c2cccc(C)c2)cc1OC | 3.1% | -9.338% | 31.3%
COc1ccc(C2=C(c3ccc(OC)cc3)C3(c4ccccc4)C(=O)C2(c2ccccc2)C2C(=O)N(c4ccc(C)cc4)C(=O)C23)cc1 (centres undefined) | 7.88% | -21.97% | -9%
Cl.Cn1c(=O)n(C)c2cc(CNCCNc3ccnc4cc(Cl)ccc34)ccc21 | -26.8% | -19.76% | -3.18%
CCCCc1c(C)nc2c(OC)cccc2c1O | 0.0743% | 20.97% | 54.7%
COc1ccc2nc(C)cc(Nc3ccccc3O)c2c1 | -42% | -6.855% | -8.38%
CCN(CC)CCNc1ncnc2c1[nH]c1ccc(Br)cc12 | 13.8% | 9.06% | -106%
COc1ccc(N2CCN(C(CNC(=O)CC(C)(C)C)c3ccc4c(c3)OCO4)CC2)cc1 (centres undefined) | -24.8% | -5.344% | 1.8%
CCN1CCN(c2cc(C)c3cc(NC(=O)c4ccc(OC)c(OC)c4)ccc3n2)CC1 | -8.68% | -2.902% | -3.72%
CCN(CC)c1ccc(NC(=O)c2cccs2)cc1 | -5.42% | 23.39% | 44.7%
CCOC(=O)C1=C(C)N=c2sc(=Cc3cc(Cl)ccc3O)c(=O)n2C1c1ccc(OC)cc1 (centres undefined) | -13% | 5.932% | -29.2%
O=C(CSc1ccc2nnc(-c3cccc(F)c3)n2n1)Nc1ccc2c(c1)OCO2 | -24.8% | -8.438% | -1.24%

SMILES | inhibition (Plasmodium falciparum [1]) | inhibition (Plasmodium berghei) | inhibition (Plasmodium falciparum [2])
CC(C)=CCN1CCC(C(=O)Nc2ccc(-c3nc4ccccc4[nH]3)cc2)CC1 | -19.7% | -16.54% | -15.4%
CN(C)c1ccc(-c2nc3cc(N)ccc3[nH]2)cc1 | -7.9% | -2.982% | 12.2%
CCCCNCC(O)(c1ccc(Cl)cc1)c1ccc(Cl)cc1 | -11% | 10.56% | 5.76%
Cl.c1ccc2c(NCCCCCCNc3c4c(nc5ccccc35)CCCC4)c3c(nc2c1)CCCC3 | -9.36% | -0.2313% | 18.8%
Oc1ccccc1CN1CCC2(CCCN(Cc3ccccc3F)C2)C1 (centres undefined) | -21.4% | -6.641% | 22.9%
Cc1ccc(N2C3c4ccccc4N(S(=O)(=O)c4ccc(C)cc4)C2c2ccccc2N3S(=O)(=O)c2ccc(C)cc2)cc1 | -6.27% | -13.78% | 24.2%
COc1ccc(-c2cc(=O)oc3c4c(ccc23)OCN(Cc2ccc(F)cc2)C4)cc1 | -14.6% | -11.79% | -29.3%
CCN(CC)CCNc1ccnc2cc3ccccc3cc12.O=P(O)(O)O | -24% | 2.138% | 9.43%
COc1ccc(C(=O)C(CCC(CNC(C)(C)C)C(=O)c2ccc(OC)cc2)CNC(C)(C)C)cc1 (centres undefined) | 4.72% | -12.62% | 16.3%
Cc1ccc(C2CC(C(F)(F)F)n3nc(C(=O)N4CCN(C(c5ccccc5)c5ccccc5)CC4)cc3N2)cc1 (centres undefined) | -8.56% | 12.55% | 8.58%
CCCCC(O)(c1ccc(Cl)cc1)C(CN1CCOCC1)c1ccc(Cl)cc1.Cl (centres undefined) | -22.4% | -12.32% | -10.1%
CCOC(=O)C1(Cc2ccccc2)CCN(Cc2cccc(OC)c2O)CC1 | -9.84% | -6.801% | -10.2%
Cc1ccc(Nc2nc(N)c3ccccc3n2)cc1Cl | -26.1% | -5.317% | -51.8%
Brc1ccc(Nc2nc3ccccc3nc2Nc2ccc(Br)cc2)cc1 | -0.532% | -6.195% | 18.1%
Cc1ccc(Cl)cc1N1CCN(CCCNC(=O)C2CCN(c3nc4ccccc4[nH]3)CC2)CC1 | -57.2% | -9.077% | 5%
Cc1ccc2c(C)nc(Nc3nc(C)cc(-c4ccccc4)n3)nc2c1 | -39.7% | -0.3138% | -11.5%
CC1CCN(Cc2ccc(NC(=O)c3cc4ccc5cccnc5c4[nH]3)cc2)CC1 | -3.24% | -17.24% | 10.2%
COCCn1c(C)nc2ccccc2c1=O | -15.4% | -11.98% | 22.3%
Fc1ccc2[nH]c3c(NCCCN4CCOCC4)ncnc3c2c1 | -13.7% | -27.65% | 14.8%
CCOc1c(Cl)cc(CNCC(O)c2ccccc2)cc1OC (centres undefined) | -14.1% | -11.86% | -11.9%
COc1ccc(-c2nc(NC(=O)CS(=O)(=O)c3ccc(F)cc3)sc2C)cc1 | 7.25% | -6.755% | -20.9%

SMILES | inhibition (Plasmodium falciparum [1]) | inhibition (Plasmodium berghei) | inhibition (Plasmodium falciparum [2])
CCOc1ccc(-c2nonc2NC(=O)c2cccc(C)c2)cc1OCC | -7.75% | -6.946% | 52.4%
CN(C)c1ccc(N2C(N)=NC(N)=NC2(C)C)cc1 | -61.8% | -13.4% | 71.6%
c1ccc(-c2ccc(-c3nc4ccccc4[nH]3)cc2)cc1 | -7.69% | -1.667% | 15.6%
O=C(Nc1ccc(N2CCN(Cc3ccccc3)CC2)cc1)c1cccs1.O=C(O)C(F)(F)F | 16.2% | 16.79% | 39.5%
Cc1ccc(Cn2c(N3CCC(C(=O)NCc4cccs4)CC3)nc3ccccc32)cc1 | -22.4% | 6.449% | 12.1%
CCOC(=O)c1cnc2c(C)cc(C)cc2c1Nc1ccc(OC)c(OC)c1 | -14.2% | 1.422% | 25.9%
CC(NCc1ccccc1)c1cc(Cl)ccc1O (centres undefined) | -17.3% | -6.231% | -5.35%
COc1ccc(/C=C2/SC(=Nc3ccccc3)NC2=O)cc1 | -46.5% | 15.63% | 3.39%
FC(F)(F)c1cccc(CNC2CCN(CCc3ccccc3)CC2)c1 | -31.1% | 1.472% | -0.872%
CCC(c1ccccc1)c1nn2c(-c3cccs3)nnc2s1 (centres undefined) | -48.4% | -15.76% | 1.43%
Cc1ccc(C)c(Cn2c(N3CCC(C(=O)NCc4cccs4)CC3)nc3ccccc32)c1 | 9.01% | -3.865% | -124%
COc1ccc(C(=O)NC(c2ccc(Cl)cc2Cl)c2cc(Cl)c3cccnc3c2O)cc1 (centres undefined) | -10.1% | 1.805% | -11.1%
CC(C)(C)CC(C)(C)NCC(O)COc1ccc2c(c1)CCC2.Cl (centres undefined) | -4.34% | -7.207% | -54.4%
CCOc1cccc(C(=O)Nc2ccc(-c3nc4ccccc4[nH]3)cc2)c1 | -29.6% | -10.12% | 32.1%
Cc1ccc(CN2CCC(C(=O)Nc3ccc(-c4cc5ccccc5[nH]4)cc3)CC2)o1 | -19.7% | -4.815% | 7.05%
Cc1sc(NC(=O)c2ccco2)c(C(c2cccnc2)N2CCC(Cc3ccccc3)CC2)c1C (centres undefined) | -26% | -7.977% | 9.35%
COCCN(C(=O)Cc1cccs1)C(C(=O)NCc1ccc(OC)cc1)c1ccc(C(C)C)cc1 (centres undefined) | -5.87% | 0.1558% | 9.73%
Cc1ccc2cc3c(N)c4c(C)ccc(C)c4nc3nc2c1 | -28.1% | -10.8% | -9.27%
Cc1ccc(Nc2nc(-c3ccccn3)cs2)cc1 | 0.787% | 12.18% | 16.3%
CCCN(CCC)CCCNC(=O)c1cc2c(-c3ccc(OC)c(OC)c3)nn(C)c2s1 | -7.86% | 5.504% | -20.2%
COc1ccccc1N1CCN(C(CNS(=O)(=O)c2ccc(Cl)cc2)c2cccnc2)CC1 (centres undefined) | -39.2% | -1.627% | 3.66%
